Columns and labels:
epoxide hydrolase = epoxide hydrolase (Agrobacterium tumefaciens, UniProt O31243); assay: Kinetics of epoxide hydrolase with epichlorohydrin as substrate; assay type: biochemical, Agrobacterium radiobacter
Text: It is now possible to study the kinetics of epoxide hydrolase by performing rapid quench and stopped flow experiments. Stopped flow experiments are possible since substrate is able to quench the fluorescence signal of some of the tryptophans present in epoxide hydrolase. Also, it is possible to mutate (replace) the amino acids (e.g. tryptophans) that are involved in substrate binding. Either with site-directed mutagenesis or random mutagenesis, it is possible to modify the substrate specificity and the stereoselectivity of epoxide hydrolase. The epoxide hydrolase has the following characteristics.
The asymmetric hydrolysis of the substrate is generally conducted in aqueous solution. The pH of the solution is maintained by means of a buffer. Maximum enzyme activity is obtained at pH 9 but a range of pH 5 to 11 can be employed. The composition of the buffer can for example be Tris/H2SO4, potassium phosphate or glycine/NaOH. The maximum enzyme activity is obtained at a temperature of 50° C., but the reaction can be conducted at a temperature ranging from 5° C. to 65° C. The substrate concentration used to measure the enzyme activity is from 1 to 20 mM. In case of poorly soluble substrates, the water solubility can be increased by adding a miscible organic cosolvent such a DMSO. Also other organic solvents can be used. […]

[1] = Storage stability of recombinant epoxide hydrolase; assay type: physicochemical; conditions: 4° C., expressed in E.coli

With ClCC1CO1 (stereo not drawn) [epichlorohydrin] the Km (epoxide hydrolase) was less than 30 µM and the Vmax (epoxide hydrolase) was 25 μmol min^−1.mg.protein^−1.

B1: epoxide hydrolase: 34 kDa monomeric enzyme (approximately 294 amino acids) from Agrobacterium radiobacter AD1, expressed in E.coli (protein)
chain: MTIRRPEDFKHYEVQLPDVKIHYVREGAGPTLLLLHGWPGFWWEWSKVIGPLAEHYDVIVPDLRGFGDSEKPDLNDLSKYSLDKAADDQAALLDALGIEKAYVVGHDFAAIVLHKFIRKYSDRVIKAAIFDPIQPDFGPVYFGLGHVHESWYSQFHQLDMAVEVVGSSREVCKKYFKHFFDHWSYRDELLTEEELEVHVDNCMKPDNIHGGFNYYRANIRPDAALWTDLDHTMSDLPVTMIWGLGDTCVPYAPLIEFVPKYYSNYTMETIEDCGHFLMVEKPEIAIDRIKTAFR
For B1, the Stability on storage [1] was “stable at 4 °C for at least half a year”.

Source: US6387668B1, “Enantioselective epoxide hydrolases and genes encoding these” (Rijksuniversiteit Groningen, priority 1997, dated 2002)
